Test results reported in ChEMBL document CHEMBL1158245, “Antifungal and molluscicidal saponins from Serjania salzmanniana” (J Nat Prod, 1996).

Tests used:
Biomphalaria alexandrina [1] = test: Molluscicidal activity against Biomphalaria alexandrina assessed as number of dead snail at 10 ppm after 24 hrs allowed to recover for an additional 24 hrs; format: organism-based; conditions: in vivo
Biomphalaria alexandrina [2] = test: Molluscicidal activity against Biomphalaria alexandrina assessed as number of dead snail at 20 ppm after 24 hrs allowed to recover for an additional 24 hrs; format: organism-based; conditions: in vivo
Biomphalaria alexandrina [3] = test: Molluscicidal activity against Biomphalaria alexandrina assessed as number of dead snail at 10 ppm after 24 hrs; format: organism-based; conditions: in vivo
Biomphalaria alexandrina [4] = test: Molluscicidal activity against Biomphalaria alexandrina assessed as number of dead snail at 20 ppm after 48 hrs; format: organism-based; conditions: in vivo
Biomphalaria alexandrina [5] = test: Molluscicidal activity against Biomphalaria alexandrina assessed as number of dead snail at 10 ppm after 48 hrs; format: organism-based; conditions: in vivo
Biomphalaria alexandrina [6] = test: Molluscicidal activity against Biomphalaria alexandrina assessed as number of dead snail at 20 ppm after 24 hrs; format: organism-based; conditions: in vivo
Cryptococcus neoformans = test: Antifungal activity against Cryptococcus neoformans ATCC 36556 after 48 hrs by microplate broth assay; format: functional; conditions: ATCC 36556, 48 h
Candida albicans = test: Antifungal activity against Candida albicans ATCC 10259 after 24 hrs by microplate broth assay; format: functional; conditions: ATCC 10259, 24 h
Aspergillus fumigatus = test: Antifungal activity against Aspergillus fumigatus ATCC 13073 after 48 hrs by microplate broth assay; format: functional; conditions: ATCC 13073, 48 h

| Compound | Activity (Biomphalaria alexandrina [1]) | Activity (Biomphalaria alexandrina [2]) | Activity (Biomphalaria alexandrina [3]) | Activity (Biomphalaria alexandrina [4]) [%] | Activity (Biomphalaria alexandrina [5]) [%] | Activity (Biomphalaria alexandrina [6]) | MIC (Cryptococcus neoformans) [µg/mL] | MIC (Candida albicans) [µg/mL] | MIC (Aspergillus fumigatus) [µg/mL] |
| --- | --- | --- | --- | --- | --- | --- | --- | --- | --- |
| C[C@@H]1O[C@@H](O[C@H]2[C@H](O[C@H]3CC[C@]4(C)[C@H]5CC=C6[C@@H]7CC(C)(C)CC[C@]7(C(=O)O)CC[C@@]6(C)[C@]5(C)CC[C@H]4C3(C)C)OC[C@H](O[C@@H]3O[C@H](CO)[C@@H](O)[C@H](O)[C@H]3O)[C@@H]2O)[C@H](O)[C@H](O)[C@H]1O [HEDERACOLCHISIDE A1] | Active | Active | Active | 100 | 100 | Active |  |  |  |
| C[C@@H]1O[C@@H](O[C@H]2[C@H](O[C@H]3CC[C@@]4(C)[C@@H](CC[C@]5(C)[C@@H]4CC=C4[C@@H]6CC(C)(C)CC[C@]6(C(=O)O)CC[C@]45C)[C@]3(C)CO)OC[C@H](O[C@@H]3O[C@H](CO)[C@@H](O)[C@H](O)[C@H]3O)[C@@H]2O)[C@H](O)[C@H](O)[C@H]1O [HEDERACOLCHISIDE A] |  | Active |  | 100 | 90 | Active | ≤ 8 | ≤ 16 | ≥ 250 |
| C[C@@H]1O[C@@H](O[C@H]2[C@H](O[C@H]3CC[C@]4(C)[C@H]5CC=C6[C@@H]7CC(C)(C)CC[C@]7(C(=O)O)CC[C@@]6(C)[C@]5(C)CC[C@H]4[C@]3(C)C=O)OC[C@H](O[C@@H]3O[C@H](CO)[C@@H](O)[C@H](O)[C@H]3O)[C@@H]2O)[C@H](O)[C@H](O)[C@H]1O [SALZMANNIANOSIDE A] | Not Active | Active | Not Active | 100 | 0 | Active | ≤ 8 | ≤ 16 | ≥ 125 |
| C[C@@H]1O[C@@H](O[C@H]2[C@H](O[C@H]3CC[C@@]4(C)[C@@H](CC[C@]5(C)[C@@H]4CC=C4[C@@H]6CC(C)(C)CC[C@]6(C(=O)O)CC[C@]45C)[C@]3(C)CO)OC[C@H](O[C@@H]3O[C@H](CO)[C@@H](O)[C@H](O)[C@H]3O)[C@@H]2O)[C@H](O)[C@H](O[C@@H]2OC[C@H](O)[C@H](O)[C@H]2O)[C@H]1O [SALZMANNIANOSIDE B] | Active |  |  | 70 | 100 |  | ≤ 8 | ≥ 125 | ≥ 250 |
